How the values were obtained:
Homo sapiens [1] = organism: Homo sapiens; experiment: Inhibitory concentration against U 46619 induced aggregation of human washed platelets(WP); type: functional
Homo sapiens [2] = organism: Homo sapiens; experiment: Inhibitory concentration against U 46619 induced aggregation of human platelet rich plasma(PRP); type: functional
Cavia porcellus = experiment: Ratio of EC50 for drug treated animals over that of control was determined for U-46,619 induced ex-vivo platelet aggregation 1 hr post dosing of 10 mg/kg orally; type: functional; details: route oral
Thromboxane-A synthase = target: T1, Thromboxane-A synthase (Homo sapiens, UniProt P24557); experiment: Inhibitory concentration against thromboxane synthase enzyme from human microsomal platelet preparation
T1 sequence (P24557 whole entry): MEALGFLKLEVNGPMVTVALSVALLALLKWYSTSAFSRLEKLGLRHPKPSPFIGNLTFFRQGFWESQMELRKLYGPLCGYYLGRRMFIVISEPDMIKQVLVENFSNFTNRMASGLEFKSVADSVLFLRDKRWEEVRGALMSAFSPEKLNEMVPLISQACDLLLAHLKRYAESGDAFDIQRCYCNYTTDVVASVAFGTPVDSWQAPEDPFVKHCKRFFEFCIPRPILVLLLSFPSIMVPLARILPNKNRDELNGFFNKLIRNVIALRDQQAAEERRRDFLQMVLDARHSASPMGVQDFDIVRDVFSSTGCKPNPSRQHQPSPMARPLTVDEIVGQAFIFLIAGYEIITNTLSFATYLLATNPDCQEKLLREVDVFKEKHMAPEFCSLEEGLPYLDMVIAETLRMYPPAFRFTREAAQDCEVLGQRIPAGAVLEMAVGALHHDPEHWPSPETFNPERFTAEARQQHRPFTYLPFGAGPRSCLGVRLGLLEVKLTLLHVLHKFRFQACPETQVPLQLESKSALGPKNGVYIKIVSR

O=C(O)CCc1cc(CCNS(=O)(=O)c2ccc(Cl)cc2)ccc1CCc1cccnc1
IC50 (Homo sapiens [1]): 15 nM
IC50 (Homo sapiens [2]): 300 nM
Concentration ratio (Cavia porcellus): 52
IC50 (Thromboxane-A synthase): 15 nM

O=C(O)CCc1ccc(CNS(=O)(=O)c2ccc(Cl)cc2)c(CCc2cccnc2)c1
IC50 (Homo sapiens [1]): 380 nM
IC50 (Thromboxane-A synthase): 43 nM

COC(=O)CCc1cc(CCNS(=O)(=O)c2ccc(Cl)cc2)cc(CCc2cccnc2)c1
IC50 (Homo sapiens [1]): 3 nM
IC50 (Homo sapiens [2]): 170 nM
Concentration ratio (Cavia porcellus): >100
IC50 (Thromboxane-A synthase): 9 nM

O=C(O)Cc1cc(CCCNS(=O)(=O)c2ccc(Cl)cc2)cc(CCc2cccnc2)c1
IC50 (Homo sapiens [1]): 1130 nM
IC50 (Homo sapiens [2]): 10700 nM
IC50 (Thromboxane-A synthase): 7 nM

O=C(O)CCc1ccc(CCCNS(=O)(=O)c2ccc(Cl)cc2)cc1CCc1cccnc1
IC50 (Homo sapiens [1]): 230 nM
IC50 (Thromboxane-A synthase): 26 nM
